# Where a name gives a salt, the structure may show the parent alone.
# Key:
# [1] = target: T1, human EP1 receptor (Homo sapiens, UniProt P34995); assay: Binding assay for the human prostanoid EP1 receptor (competition with [3H]-PGE2); settings: binding to human EP1 receptor, [3H]-PGE2 competition, CHO-K1 cell membranes; averages of a number of experiments; read-out: pIC50 value (converted)
# T1 construct: expressed in transfected cells; host or cells: CHO-K1
# T1 sequence (P34995 1-402): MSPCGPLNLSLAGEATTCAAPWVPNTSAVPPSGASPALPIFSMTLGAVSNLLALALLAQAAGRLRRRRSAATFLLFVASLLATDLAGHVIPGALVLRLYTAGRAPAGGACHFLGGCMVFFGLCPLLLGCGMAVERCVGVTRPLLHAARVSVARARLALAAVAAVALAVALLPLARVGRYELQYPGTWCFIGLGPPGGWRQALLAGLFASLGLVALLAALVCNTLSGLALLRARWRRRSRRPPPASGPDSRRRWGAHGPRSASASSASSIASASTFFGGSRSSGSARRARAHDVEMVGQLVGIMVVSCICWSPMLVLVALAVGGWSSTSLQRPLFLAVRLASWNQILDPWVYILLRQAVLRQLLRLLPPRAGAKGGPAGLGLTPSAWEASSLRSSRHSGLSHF
# Procedure: Competition assay using [^3H]-PGE2.
# Compound potencies are determined using a radioligand binding assay. In this assay compound potencies are determined from their ability to compete with tritiated prostaglandin E2 ([^3H]-PGE2) for binding to the human EP1 receptor.
# This assay utilises Chinese hamster ovary-K1 (CHO-K1) cells into which a stable vector containing the EP1 cDNA has previously been transfected. Cells are cultured in suitable flasks containing culture medium such as DMEM:F-12 supplemented with 10% v/v foetal calf serum, 2 mM L-glutamine, 0.25 mg/ml geneticin, 10 μg/ml puromycin and 10 μM indomethacin.
# Cells are detached from the culture flasks by incubation in calcium and magnesium free phosphate buffered saline containing 1 mM disodium ethylenediaminetetraacetic acid (Na2EDTA) and 10 μM indomethacin for 5 min. The cells are isolated by centrifugation at 250×g for 5 mins and suspended in an ice cold buffer such as 50 mM Tris, 1 mM Na2EDTA, 140 mM NaCl, 10 μM indomethacin (pH 7.4). The cells are homogenised using a Polytron tissue disrupter (2×10 s burst at full setting), centrifuged at 48,000×g for 20 mins and the pellet containing the membrane fraction is washed (optional) three times by suspension and centrifugation at 48,000×g for 20 mins. The final membrane pellet is suspended in an assay buffer such as 10 mM 2-[N-morpholino]ethanesulphonic acid, 1 mM Na2EDTA, 10 mM MgCl2 (pH 6). Aliquots are frozen at −80° C. until required.
# For the binding assay the cell membranes, competing compounds and [^3H]-PGE2 (3 nM final assay concentration) are incubated in a final volume of 100 μl for 30 min at 30° C. All reagents are prepared in assay buffer. Reactions are terminated by rapid vacuum filtration over GF/B filters using a Brandell cell harvester. The filters are washed with ice cold assay buffer, dried and the radioactivity retained on the filters is measured by liquid scintillation counting in Packard TopCount scintillation counter.
# The data are analysed using non linear curve fitting techniques to determine the concentration of compound producing 50% inhibition of specific binding (IC50).
# [2] = target: T1, human EP1 receptor; assay: human EP1 calcium mobilisation assay; assay type: cell-based; settings: human EP1, PGE2-induced calcium mobilisation in CHO-K1 cells; free bases or sodium salts; averages of a number of experiments; read-out: functional pKi value (converted)
# Procedure, shortened: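 CHO-K1 cells stably expressing human EP1, loaded with Fluo-4 after 24 h at 37° C; compounds added before PGE2 challenge. Inhibition of PGE2-induced [Ca2+]i rise read by FLIPR fluorescence; pIC50 from curve fitting of half-maximal inhibition.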
Compound,IC50 [1],Ki [2]
"O=C(O)c1ccc(Cc2cc(Cl)ccc2OCC2CC2)o1 [Example 3, Sodium 5-({5-chloro-2-[(cyclopropylmethyl)oxy]phenyl}methyl)-2-furancarboxylate]",≤ 0.01 µM,< 1 µM
"O=C(O)c1ccc(Cc2cc(Cl)ccc2OC2CCCC2)o1 [Example 5, Sodium 5-{[5-chloro-2-(cyclopentyloxy)phenyl]methyl}-2-furancarboxylate]",≤ 0.01 µM,≤ 0.01 µM
"O=C(O)c1ccc(Cc2cc(Cl)ccc2OCC2CCCCC2)o1 [Example 6, Sodium 5-({5-chloro-2-[(cyclohexylmethyl)oxy]phenyl}methyl)-2-furancarboxylate]",≤ 0.01 µM,< 1 µM
"CCC(CC)COc1ccc(Cl)cc1Cc1ccc(C(=O)O)o1 [Example 7, Sodium 5-({5-chloro-2-[(2-ethylbutyl)oxy]phenyl}methyl)-2-furancarboxylate]",≤ 0.01 µM,≤ 0.01 µM
"CC(C)COc1ccc(Cl)cc1Cc1ccc(C(=O)O)o1 [Example 10, Sodium 5-({5-chloro-2-[(2-methylpropyl)oxy]phenyl}methyl)-2-furancarboxylate]",≤ 0.01 µM,< 1 µM
"Cc1cc(C(=O)O)oc1Cc1cc(Cl)ccc1OCc1ccccc1 [Example 15, Sodium 5-({5-chloro-2-[(phenylmethyl)oxy]phenyl}methyl)-4-methyl-2-furancarboxylate]",≤ 0.01 µM,≤ 0.01 µM
"CN(C)Cc1ccc2nc(-c3ccc(Cc4cc(Cl)ccc4OCc4ccccc4)o3)[nH]c2c1 [Example 138, ({2-[5-({5-Chloro-2-[(phenylmethyl)oxy]phenyl}methyl)-2-furanyl]-1H-benzimidazol-5-yl}methyl)dimethylamine dihydrochloride]",–,< 1 µM
"Clc1ccc(OCc2ccccc2)c(Cc2ccc(-c3nc4ccc(CN5CCCC5)cc4[nH]3)o2)c1 [Example 140, 2-[5-({5-Chloro-2-[(phenylmethyl)oxy]-phenyl}methyl)-2-furanyl]-5-(1-pyrrolidinylmethyl)-1H-benzimidazoledihydrochloride]",–,< 1 µM
"CC(C)COc1ccc(Cl)cc1Cc1ccc(-c2nc3ccc(CN(C)CC4CCOCC4)cc3[nH]2)o1 [Example 152, ({2-[5-({5-Chloro-2-[(2-methylpropyl)oxy]-phenyl}methyl)-2-furanyl]-1H-benzimidazol-5-yl}methyl)methyl(tetrahydro-2H-pyran-4-ylmethyl)aminedihydrochloride]",–,< 1 µM
"CCNCc1ccc2nc(-c3ccc(Cc4cc(Cl)ccc4OCC(C)C)o3)[nH]c2c1 [Example 154, N-({2-[5-({5-Chloro-2-[(2-methylpropyl)oxy]-phenyl}methyl)-2-furanyl]-1H-benzimidazol-5-yl}methyl)ethanaminedihydrochloride]",–,< 1 µM
"CC(C)COc1ccc(Cl)cc1Cc1ccc(-c2nc3ccc(CNC(C)C)cc3[nH]2)o1 [Example 155, N-({2-[5-({5-Chloro-2-[(2-methylpropyl)oxy]-phenyl}methyl)-2-furanyl]-1H-benzimidazol-5-yl}methyl)-2-propanaminedihydrochloride]",–,< 1 µM
"CN1CCN(Cc2cccc3nc(-c4ccc(Cc5cc(Cl)ccc5OCc5ccccc5)o4)[nH]c23)CC1 [Example 160, 2-[5-({5-Chloro-2-[(phenylmethyl)oxy]-phenyl}methyl)-2-furanyl]-4-[(4-methyl-1-piperazinyl)methyl]-1H-benzimidazolehydrochloride]",–,< 1 µM
"CC(C)COc1ccc(Cl)cc1Cc1ccc(-c2nc3cc(CCN4CCCC4)ccc3[nH]2)o1 [Example 161, 2-[5-({5-Chloro-2-[(2-methylpropyl)oxy]-phenyl}methyl)-2-furanyl]-5-[2-(1-pyrrolidinyl)ethyl]-1H-benzimidazoledihydrochloride]",–,< 1 µM
"CC(C)COc1ccc(Cl)cc1Cc1ccc(-c2nc3cc(CCN(C)C)ccc3[nH]2)o1 [Example 163, (2-{2-[5-({5-Chloro-2-[(2-methylpropyl)oxy]-phenyl}methyl)-2-furanyl]-1H-benzimidazol-5-yl}ethyl)dimethylaminedihydrochloride]",–,< 1 µM
"CC(C)COc1ccc(Cl)cc1Cc1ccc(-c2nc3cc(CN(C)C)cnc3[nH]2)o1 [Example 164, ({2-[5-({5-Chloro-2-[(2-methylpropyl)oxy]-phenyl}methyl)-2-furanyl]-1H-imidazo[4,5-b]pyridin-6-yl}methyl)dimethyl-amine dihydrochloride]",–,< 1 µM
CC(C)COc1ccc(Cl)cc1Cc1ccc(-c2cc[nH]n2)o1 [Example 168],–,< 1 µM
"Clc1ccc(OCc2ccccc2)c(Cc2ccc(-c3nnc[nH]3)o2)c1 [Example 169, 3-[5-({5-Chloro-2-[(phenylmethyl)oxy]phenyl}methyl)-2-furanyl]-1H-1,2,4-triazole]",–,< 1 µM

# Continued, values first:
IC50 [1],Ki [2],Compound
–,> 1 µM,"CC(C)COc1ccc(Cl)cc1Cc1ccc(-c2nc3cccc(CO)c3[nH]2)o1 [Example 134, {2-[5-({5-chloro-2-[(2-methylpropyl)oxy]phenyl}methyl)-2-furanyl]-1H-benzimidazol-4-yl}methanol]"
–,> 1 µM,"CC(C)COc1ccc(Cl)cc1Cc1ccc(-c2nc3cc(Br)cnc3[nH]2)o1 [Example 135, 6-Bromo-2-[5-({5-chloro-2-[(2-methylpropyl)oxy]phenyl}methyl)-2-furanyl]-1H-imidazo[4,5-b]pyridine hydrochloride]"
–,< 1 µM,"C=Cc1cnc2[nH]c(-c3ccc(Cc4cc(Cl)ccc4OCC(C)C)o3)nc2c1 [Example 137, 2-[5-({5-Chloro-2-[(2-methylpropyl)oxy]phenyl}methyl)-2-furanyl]-6-ethenyl-1H-imidazo[4,5-b]pyridine hydrochloride]"
–,< 1 µM,"Clc1ccc(OCc2ccccc2)c(Cc2ccc(-c3nc4ccc(CN5CCOCC5)cc4[nH]3)o2)c1 [Example 139, 2-[5-({5-Chloro-2-[(phenylmethyl)oxy]-phenyl}methyl)-2-furanyl]-5-(4-morpholinylmethyl)-1H-benzimidazoledihydrochloride]"
–,< 1 µM,"Clc1ccc(OCc2ccccc2)c(Cc2ccc(-c3nc4ccc(CN5CCCCC5)cc4[nH]3)o2)c1 [Example 141, 2-[5-({5-Chloro-2-[(phenylmethyl)oxy]-phenyl}methyl)-2-furanyl]-5-(1-piperidinylmethyl)-1H-benzimidazoledihydrochloride]"
–,< 1 µM,"CC(C)COc1ccc(Cl)cc1Cc1ccc(-c2nc3ccc(CN4CCOCC4)cc3[nH]2)o1 [Example 144, 2-[5-({5-Chloro-2-[(2-methylpropyl)oxy]-phenyl}methyl)-2-furanyl]-5-(4-morpholinylmethyl)-1H-benzimidazoledihydrochloride]"
–,< 1 µM,"CCN(CC)Cc1ccc2nc(-c3ccc(Cc4cc(Cl)ccc4OCC(C)C)o3)[nH]c2c1 [Example 150, N-({2-[5-({5-Chloro-2-[(2-methylpropyl)oxy]-phenyl}methyl)-2-furanyl]-1H-benzimidazol-5-yl}methyl)-N-ethylethanaminedihydrochloride]"
–,< 1 µM,"CC(C)COc1ccc(Cl)cc1Cc1ccc(-c2nc3ccc(CN(C)CC(C)(C)C)cc3[nH]2)o1 [Example 153, N-({2-[5-({5-Chloro-2-[(2-methylpropyl)oxy]-phenyl}methyl)-2-furanyl]-1H-benzimidazol-5-yl}methyl)-N,2,2-trimethyl-1-propanaminedihydrochloride]"
–,< 1 µM,"CC(C)COc1ccc(Cl)cc1Cc1ccc(-c2nc3cc(CN4CCCC4)cnc3[nH]2)o1 [Example 165, 2-[5-({5-Chloro-2-[(2-methylpropyl)oxy]-phenyl}methyl)-2-furanyl]-6-(1-pyrrolidinylmethyl)-1H-imidazo[4,5-b]pyridinedihydrochloride]"
–,≤ 0.01 µM,"CC(C)COc1ccc(Cl)cc1Cc1ccc(-c2ncc[nH]2)o1 [Example 167, 2-[5-({5-Chloro-2-[(2-methylpropyl)oxy]phenyl}methyl)-2-furanyl]-1H-imidazole]"

# From patent publication US20080287430A1, “Furan Compounds Useful As Ep1 Receptor Antagonists” (priority 2005, published 2008)
